In BindingDB's records for doi:10.1002/cbic.201600697 (University of Tartu, 2017):
pKd: −log10 of the molar value. Where “and” joins values, the source holds several entries; their conditions need not be identical. Equal entries are not always repeated.

Assays:
Conditions in all cases: pH 7.5
[1] = target: cAMP-dependent protein kinase catalytic subunit alpha (Homo sapiens, UniProt P17612); assay: Equilibrium Binding/Displacement Assay with Fluorescence Anisotropy
Protocol: (§1) All measurements were performed in HEPES (50 mm, pH 7.5) containing NaCl (150 mm), Tween-20 (0.005%) and DTT (5 mm) according to a previously published protocol.[Vaasa et al., Anal. Biochem., 385:85-93] The final volume of the assay mixture was […].

[2] = target: T1, Serine/threonine-protein kinase haspin [470-798] (Homo sapiens, UniProt Q8TF76); assay: as above
T1 construct: 470-798
T1 sequence (Q8TF76 whole entry): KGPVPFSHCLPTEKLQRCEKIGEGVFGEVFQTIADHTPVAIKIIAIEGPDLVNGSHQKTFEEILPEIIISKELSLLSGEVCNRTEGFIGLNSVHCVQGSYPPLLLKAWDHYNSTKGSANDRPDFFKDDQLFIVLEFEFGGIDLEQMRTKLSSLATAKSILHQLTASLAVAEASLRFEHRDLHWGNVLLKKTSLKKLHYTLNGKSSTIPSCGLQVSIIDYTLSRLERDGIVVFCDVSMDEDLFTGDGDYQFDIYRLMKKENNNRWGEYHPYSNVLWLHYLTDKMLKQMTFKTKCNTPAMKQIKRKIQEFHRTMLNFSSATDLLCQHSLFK
Protocol: as §1

[3] = target: T1, Serine/threonine-protein kinase haspin [470-798]; assay: Kinetic Assay with Fluorescence Anisotropy
Protocol: Association kinetics (Kon): All measurements were performed in HEPES (50 mM, pH 7.5) containing NaCl (150 mM), Tween-20 (0.005%) and DTT (5 mM) according to a previously published protocol.[Vaasa et al., Anal. Biochem., 385:85-93] The final volume of the assay mixture was […] The association kinetics assay with fluorescent probes and data analysis were performed according to published protocols.[Vaasa et al., Anal. Biochem., 385:85-93] The final volume of the assay mixture was […]. Dissociation kinetics (Koff): All measurements were performed in HEPES (50 mM, pH 7.5) containing NaCl (150 mM), Tween-20 0.005%) and DTT (5 mM). Data analysis was as reported previously,[Vaasa et al., Anal. Biochem., 385:85-93] by using method1 for compounds with shorter residence times, and method 2 for 1 in studies with haspin. The final volume of the assay mixture was […]. Kd' is calculated as Koff/Kon.

Row | pKd [1] | pKd [2] | pKd [3] | SMILES
1 | 8.02 | 8.08 | 7.83 | CCCCCCCCCCCCCC(=O)NCCCC[C@@H](NC(=O)[C@H](C)NC(=O)[C@@H](NC(=O)[C@H](CCC(N)=O)NC(=O)[C@H](CCCNC(=N)N)NC(=O)[C@H](CCCCNC(=O)C[C@@H](NC(=O)CCCCCNC(=O)[C@H]1O[C@@H](n2ccc3c(N)ncnc32)[C@H](O)[C@@H]1O)C(=O)[O-])NC(=O)[C@H](CCCNC(=N)N)NC(=O)[C@H](C)N)C(C)O)C(=O)N[C@H](CCCCNC(=O)c1ccc(-c2c3ccc(=[N+](C)C)cc-3oc3cc(N(C)C)ccc23)c(C(=O)O)c1)C(N)=O (stereo partly specified) [ARC-3380]
2 | 7.28 | 7.96 | 8.55 | CC(O)[C@H](NC(=O)[C@H](CCC(N)=O)NC(=O)[C@H](CCCNC(=N)N)NC(=O)[C@H](CCCCNC(=O)C[C@@H](NC(=O)CCCCCNC(=O)[C@H]1O[C@@H](n2ccc3c(N)ncnc32)[C@H](O)[C@@H]1O)C(=O)[O-])NC(=O)[C@H](CCCNC(=N)N)NC(=O)[C@H](C)N)C(=O)N[C@@H](C)C(=O)N[C@H](CCCCNC(=O)c1ccc(-c2c3ccc(=[N+](C)C)cc-3oc3cc(N(C)C)ccc23)c(C(=O)O)c1)C(N)=O (stereo partly specified) [ARC-3384]
3 | 7.03 | 9.85 and 10.72 |  | CC(O)[C@H](NC(=O)[C@H](CCC(N)=O)NC(=O)[C@H](CCCNC(=N)N)NC(=O)[C@H](CCCCNC(=O)C[C@@H](NC(=O)CCCCCNC(=O)[C@H]1O[C@@H](n2cc(I)c3c(N)ncnc32)[C@H](O)[C@@H]1O)C(=O)O)NC(=O)[C@H](CCCNC(=N)N)NC(=O)[C@H](C)N)C(=O)N[C@@H](C)C(=O)N[C@H](CCCCN)C(N)=O (stereo partly specified) [ARC-3429]
4 | 8.39 | 9.30 and 9.92 | 10.00 | CC(O)[C@H](NC(=O)[C@H](CCC(N)=O)NC(=O)[C@H](CCCNC(=N)N)NC(=O)[C@H](CCCCNC(=O)C[C@@H](NC(=O)CCCCCNC(=O)[C@H]1O[C@@H](n2cc(I)c3c(N)ncnc32)[C@H](O)[C@@H]1O)C(=O)[O-])NC(=O)[C@H](CCCNC(=N)N)NC(=O)[C@H](C)N)C(=O)N[C@@H](C)C(=O)N[C@H](CCCCNC(=O)c1ccc(-c2c3ccc(=[N+](C)C)cc-3oc3cc(N(C)C)ccc23)c(C(=O)O)c1)C(N)=O (stereo partly specified) [ARC-3430]
